5 compounds from BindingDB's records for doi:10.1021/cb9000102 (Pfizer, 2009) can be followed below.

The target of the assay is Biotin carboxylase (Escherichia coli (strain K12), UniProt P24182). The assay is described as follows: ACCase-Coupled Enzyme Assay. The following applies: pH 8; 23 °C. As for the experimental part:
To each well of the plate consisting of 50 mM Hepes (pH 8.0), 100 mM KCl, 1 mM TCEP, 5 mM MgCl2, 0.1 mg/mL BSA, 0.005% (vol/vol) Tween 20, 30 nM E. coli BC, 50 nM E. coli CT, 50 nM biotinylated E. coli BCCP, and 0.5 unit/mL E. coli purine nucleoside phosphorylase was added. […] Reaction progress was monitored by the increase in absorbance at 360 nm. […] Inhibition data were fit to the standard IC50 equation.

Broadly, the IC50 is the point on the concentration scale where inhibition reaches its midpoint. Low values mean greater potency, high ones weaker potency.

Regarding `Nc1nccc(C(=O)c2ccccc2)n1` [amino pyrimidine, 7], the IC50 worked out at 8200 nM.
Consider `Cc1nc2nc(N)[nH]c2c(O)c1Cc1ccccc1` [amino imidazo-pyridinone, 8], for which half-maximal inhibition (IC50) required 2400 nM.
`Cc1ccccc1CN(Cc1ccc2c(c1)OCCO2)C(=O)c1cnc(N)o1` [amino-oxazole, 2d]: the IC50 turned out to be 7 nM.
Turning to `Cc1nc(-c2ccnc(N)n2)cs1` [amino pyrimidine, 6], the IC50 turned out to be 59300 nM.
`CCCCN(Cc1ccccc1)C(=O)c1cnc(N)o1` [amino-oxazole, 2b] yielded an IC50 of 1290 nM.
